This passage reports IC50 results from patent publication US6706727B1, “Macrolides” (Novartis AG, priority 2002, dated 2004).

The structures appear in SMILES notation.

The test has as its system CD4+ antigen-specific human helper T-cell clone (TCC). As to the kind of experiment: Antigen-specific stimulation of the helper T-cell clone (TCC) by monocyte-derived dendritic cells, T-cell proliferation (3H-thymidine). Type of test: cell-based. The following applies: Dpt-pulsed M-DC, M-DC/T-cell ratio 1/50, 4 day culture. The text has this: This activity is further evidenced in additional testing with the above helper T-cell clone and monocyte-derived dendritic cells:
The CD4^+ antigen-specific human helper T-cell clone (TCC) is established by limiting dilution culture (Van Reijsen T. C. et al, J. Allergy Clin. Immunol. 90 [1992] 184-193). The TCC recognizes a peptide derived from the major allergen Der p1 of the house dust mite Dermatophagoides pteronyssinus (Dpt) in association with the MHC class II restriction molecule HLA-DPw4 (Baselmnns P. J. et al., Human Immunol. 61 [2000] 789-798). To obtain sufficient cell numbers for assay purposes, the TCC is expanded in vitro by activation with immobilized anti-CD3 monoclonal antibody (Leu4, Becton Dickinson, San Jose, Calif., USA) and culture in complete medium supplemented with rIL-2 and rhIL-4 (50 U/ml each) (Van Reijsen et al., supra).
Human monocyte-derived dendritic cells (M-DC) are generated from purified monocytes by culturing in RPMI 1640 culture medium at a cell density of 7×10^5 cells/ml. The culture medium is supplemented with 15% FCS and rh-GM-CSF (300 U/ml) and rh-IL-4 (100 U/ml). At day 7 of culture, 90-95% of the cells express the phenotype of M-DC as verified by flow cytometry and they are used for antigen-specific stimulation of the TCC, which is used at least 14 days after the last challenge by antigen or anti-CD3 mAb to ensure a resting state of the cells. For antigen-specific stimulation, the M-DC are incubated overnight (at least 12 h) in culture medium containing 50 μ/ml of the extract of Dpt (ARTU Biologicals NV, Lelystad, The Netherlands). The content of the major allergen Der p1 used is about 18.5 μg/mg of Dpt extract. The M-DC are washed twice and 50 μl aliquots of the final number of M-DC are added to 5×10^4 T-cells per well in 100 μl medium, giving a M-DC/T-cell ratio of 1/50. Immediately thereafter, 50 μl aliquots of a four-fold final concentration of test compound are added. Each sample is tested in quadruplicate. The test compound is dissolved in ethanol to provide a stock solution of 1 mM and diluted 1/1000 in the complete culture medium that is also used to prepare the final test compound dilution. T-cell proliferation is determined by pulsing with 1 μCi/20 μl/well of (methyl-)^3H-thymidine (Amersham, U.K) during the final 16 hours of a 4 day culture period.
In general, IC50 refers to the point on the concentration scale where inhibition reaches its midpoint. Consider `CC[C@H]1C/C(C)=C/[C@@H](CC)C(=O)C[C@H](O)[C@@H](C)[C@@H](/C(C)=C/[C@@H]2CC[C@@H](O)[C@H](OC)C2)OC(=O)[C@@H]2CCCCN2C(=O)C(=O)[C@]2(O)O[C@H]([C@@H](OC)C1)[C@@H](OC)C[C@H]2C` [21-ethyl-ascomycin], for which the IC50 worked out at 0.33 nM. Take `CC/C1=C\[C@@H](CC)C(=O)C[C@H](O)[C@@H](C)[C@@H](/C(C)=C/[C@@H]2CC[C@H](Cl)[C@H](OC)C2)OC(=O)[C@@H]2CCCCN2C(=O)C(=O)[C@]2(O)O[C@H]([C@@H](OC)C[C@@H](C)C1)[C@@H](OC)C[C@H]2C` [Compound 19-ethyl-ASM]: the IC50 came out at 6.8 nM. The value for `CC[C@@H]1C[C@H](OC)[C@@H]2O[C@@]1(O)C(=O)C(=O)N1CCCC[C@H]1C(=O)O[C@H](/C(C)=C/[C@@H]1CC[C@@H](O)[C@H](OC)C1)[C@H](C)[C@@H](O)CC(=O)[C@H](CC)/C=C(\C)C[C@H](C)C[C@@H]2OC` [27-ethyl-ascomycin] was 0.88 nM. The value for `CC[C@H]1C/C(C)=C/[C@@H](CC)C(=O)C[C@H](O)[C@@H](C)[C@@H](/C(C)=C/[C@@H]2CC[C@H](Cl)[C@H](OC)C2)OC(=O)[C@@H]2CCCCN2C(=O)C(=O)[C@]2(O)O[C@H]([C@@H](OC)C1)[C@@H](OC)C[C@H]2C` [Compound 21-ethyl-ASM] was 1.6 nM; that for `CC[C@@H]1C[C@H](OC)[C@@H]2O[C@@]1(O)C(=O)C(=O)N1CCCC[C@H]1C(=O)O[C@H](/C(C)=C/[C@@H]1CC[C@H](Cl)[C@H](OC)C1)[C@H](C)[C@@H](O)CC(=O)[C@H](CC)/C=C(\C)C[C@H](C)C[C@@H]2OC` [Compound 27-ethyl-ASM] was 4.6 nM.
